No end group written: not given here.
Experiments:
S. aureus (5) = settings: Table 6B
Experimental: (§1) All the strains (see below) used in minimal inhibitory concentration (MIC) assays (Ovchinnikov et al., 2017, Front Microbiol., 8, p774, doi:10.3389/fmicb.2017.00774) were grown in BHI medium (Oxoid) at 30° C. without shaking. The tested strains were obtained from the LMG collection. […] NisinZ and micrococcin P1 were purified from source. Synthesized peptides were solubilized to concentrations of 10.0-0.1 mg/ml in 0.1% (vol/vol) trifluoroacetic acid and stored at −20° C. until use. Garvicin KS is made up of 3 peptides:
(§2) Bacteriocin activity was determined using a microtitre plate assay. The plates were incubated at 30° C. for 8 h and the growth was measured spectrophotometrically at 600 nm (A600) with 15 min intervals using SPECTROstarNano (BMG LABTECH, Germany). The MIC was defined as the bacteriocin concentration that inhibited the growth of the indicator strain by at least 50% in 200 μl culture (i.e., 50% of the turbidity of the control culture without bacteriocin).

[1] = test system: E. faecalis LMGT3358 resistant mutants
Outline: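 Read-out is turbidity: MIC taken as the minimal bacteriocin concentration that halves growth relative to an untreated control culture. Strains were cultured in BHI at 30° C without agitation.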

S. pseudointermedius (3) = settings: S. pseudointermedius (3), Table 6B
Experimental: as §1, §2

SP 4013 = assay: organism not typed; settings: SP 4013 (S. pseudointermedius)
Experimental: as §1, §2

SP 4012 = assay: organism not typed; settings: SP 4012 (S. pseudointermedius)
Experimental: as §1, §2

SP 4014 = assay: organism not typed; settings: SP 4014 (S. pseudointermedius)
Experimental: as §1, §2

## MKFKFNPTGTIVKKLTQYEIAWFKNKHGYYPWEIPRC [EntK1]
S. aureus (5)
  MIC: >25 µg/mL

## MLAKIKAMIKKFPNPYTLAAKLTTYEINWYKQQYGRYPWERPVA [EntEJ97]
[1]; five LR colonies of E. faecalis
  resistance of lower resistance (LR) colonies compared to the WT: 16-32 times
[1]; seven HR colonies of E. faecalis
  resistance of highly resistant (HR) colonies compared to the WT: at least 500 times
S. pseudointermedius (3)
  MIC: 12.5 µg/mL
SP 4013
  MIC: 12.5 µg/mL
SP 4012
  MIC: 12.5 µg/mL
SP 4014
  MIC: 12.5 µg/mL

Source: patent US11648289B2, “Antibacterial method” (priority 2016, dated 2023)
